The record followed here is publication PMC10179701, “Towards Protection of Nucleic Acids from Herbicide Attack: Self-Assembly of Betaines Based on Pillar[5]arene with Glyphosate and DNA” (International Journal of Molecular Sciences, 2023).

One data set has as its target DNA from salmon sperm. Briefly: UV-Vis spectrophotometric titration of (pillar[5]arene-DNA) associates with GIS. The class given is binding. Particulars: 1:1 composition, Tris-HCl buffer, CPA 3 × 10^–6 M, CDNA 2.5 × 10^–7 M, GIS 1:0.3 to 1:10. An excerpt:
It is well known that water-soluble derivatives of pillar[5]arene can applicate as antidotes for various drugs. The interaction of GIS with DNA with a logarithm of the association constant of 4.92 was shown. […] In this regard, a hypothesis about the possibility of using the synthesized macrocycles as a glyphosate antidote for DNA protection was proposed. Therefore, the behavior of the associate (macrocycle-DNA) with GIS was studied by UV-Vis spectroscopy to test the hypothesis above. First, a solution of DNA (2.5 × 10^–7 M) was added to the macrocycle (1–4) solution (3 × 10^–6 M). Then the herbicide solution (CGIS = 3 × 10^–6 M) was added to the resulting associate, and the absorption spectrum of the resulting ternary system was recorded. […]
Further, the interaction of the (pillar[5]arene–DNA) associated with GIS was quantified (Figure 7c,d and Figure S28). […] The effective association constants of the (macrocycle-DNA)-GIS associates of 1:1 composition were calculated (Table 2). […]
buffer solution. The UV spectra of the solutions were then recorded. The stability constant of complex was calculated by Bindfit. […]
volume of 3 mL with Tris‐HCl buffer solution. The UV spectra of the solutions were then recorded. The stability constant of each complex was calculated by Bindfit. […]
stability constant of complex was calculated by Bindfit. […]

The subject of a further data set is A549 cells. The data set can be described thus: MTT assay, combined action of macrocycles with GIS on A549 cells. The class given is cell-based, human. To be noted: A549, pillararene 1 × 10^–5 M with GIS 3.47 × 10^–2 M. The protocol: The ability to inhibit the viability and proliferative activity of A549 cells of macrocycles 1–4 in the presence of GIS was studied using the MTT assay. […] The developed approach opens up the possibility of creating pillar[5]arene-based herbicide antidotes. […]
fresh one with the addition of the test substances.
Then, the medium was aspirated from the wells
and 100 μL of dimethyl sulfoxide was added.
the formazan crystals to dissolve. […]
substances. […] After 24 h of incubation cells were […]
(In general: Tetrazolium assays rely on reduction of a dye to a coloured formazan, in cell work by metabolically active cells.)

The next data set relates to LEC cells. The data set can be described thus: MTT test, LEC cells. The protocol:
The next stage of this work was the study of pillar[5]arenes 1–4 ability to inhibit the viability and proliferative activity of embryonic lung epithelial (LEC) and human lung adenocarcinoma (A549) cells using the MTT test.
Further, the ability of GIS to inhibit the viability and proliferative activity of LEC and A549 cells was studied by the MTT test. […] The average inhibitory concentration (IC50) was calculated for GIS (Table 3). […]
1.6. Cytotoxicity of pillar[5]arenes 1–4, GIS and their mixtures on A549 and LEC Cell Lines […]
activity of LEC cells and A549 cells was investigated using the MTT test according to [2]. A549 – human alveolar adenocarcinoma cell line (ATCC, Rockville, Maryland, USA) and cow embryo lung epithelial (LEC) cells (Animal Cell Culture Collection of Russian Academy of Agricultural Science, Kazan, Russia) were cultured in DMEM (GIBCO, Waltham, MA, USA) medium supplemented with 10% serum and 100 units/mL of penicillin (PanEco, Moscow, Russia) and streptomycin (PanEco, Moscow, Russia) in a humidified atmosphere with 5% CO2 at 37 °C. Cells were seeded in 96‐well plates at a concentration of 10^4 cells/well. After 24 h of cultivation, the medium was removed from the wells and replaced with a fresh one with the addition of the test substances. The volume of the culture medium in the wells was 100
μL. After 24 h incubation of cells in the presence of substances, the medium in the wells was replaced with a fresh one containing MTT reagent at a final concentration of 0.5 mg/mL. The cells were incubated with MTT for 4 h at 37 °C in an atmosphere of 5% CO2. Then, the medium was aspirated from the wells and 100 μL of dimethyl sulfoxide was added. Probes were incubated at 37 °C for 15 min in the dark for the formazan crystals to dissolve. The optical density of the formazan solution in the wells was measured using a plate reader (BioRad xMarkTM Microplate Spectrophotometer, USA) at a wavelength of 570 nm.
Three series of experiments were carried out with at least 8 replications for each variant in the series. […]

Data set [1] is described as follows: Dynamic light scattering of macrocycle aggregates in water. The class given is physicochemical. Particulars: H2O, 298 K. The protocol:
The next stage of the work was the study of aggregation properties of both previously synthesized ester derivatives of amino acids 1 and 2, and macrocyclic betaine derivatives 3 and 4 by dynamic light scattering (DLS). The study was carried out in water in the 1 × 10^–6–1 × 10^–4 M concentration range (Figures S11–S22). The size of associates increases with decreasing macrocycle 1 concentration in solution (Table 1). A different pattern is observed for betaine derivative 3. Thus, the particles become coarser, and the polydispersity index (PDI) of the systems increased with an increase in compound 3 concentration, which is probably due to the formation of β-sheets by oligopeptide substituents. The presence of two oppositely charged fragments in one substituent leads to the fact that compound 3 becomes similar to surfactant molecules in terms of its aggregation properties.

The structures appear in SMILES notation. Marks after values point to notes of the source that are not given here.

Take `C[N+](C)(CCCNC(=O)COc1cc2c(OCC(=O)NCCC[N+](C)(C)CC(=O)N[C@@H](Cc3ccccc3)C(=O)[O-])cc1Cc1cc(OCC(=O)NCCC[N+](C)(C)CC(=O)N[C@@H](Cc3ccccc3)C(=O)[O-])c(cc1OCC(=O)NCCC[N+](C)(C)CC(=O)N[C@@H](Cc1ccccc1)C(=O)[O-])Cc1cc(OCC(=O)NCCC[N+](C)(C)CC(=O)N[C@@H](Cc3ccccc3)C(=O)[O-])c(cc1OCC(=O)NCCC[N+](C)(C)CC(=O)N[C@@H](Cc1ccccc1)C(=O)[O-])Cc1cc(OCC(=O)NCCC[N+](C)(C)CC(=O)N[C@@H](Cc3ccccc3)C(=O)[O-])c(cc1OCC(=O)NCCC[N+](C)(C)CC(=O)N[C@@H](Cc1ccccc1)C(=O)[O-])Cc1cc(OCC(=O)NCCC[N+](C)(C)CC(=O)N[C@@H](Cc3ccccc3)C(=O)[O-])c(cc1OCC(=O)NCCC[N+](C)(C)CC(=O)N[C@@H](Cc1ccccc1)C(=O)[O-])C2)CC(=O)N[C@@H](Cc1ccccc1)C(=O)[O-]` [Compound 4, 4,8,14,18,23,26,28,31,32,35-Decakis-[(N-[3’-dimethyl({oxidocarbonyl[S-benzyl]methyl}aminocarbonylmethyl)ammonio]propyl)aminocarbonylmethoxy]-pillar[5]arene]: the entries for the “lgKa of (pillar[5]arene-DNA) associate with GIS” value on DNA from salmon sperm and on DNA from salmon sperm (listed as betaine pillar[5]arene containing fragments of L-Phe) were “decrease in lgKa by more than an order of magnitude” and 3.60, respectively. In addition, in the data set on A549 cells, the “change of toxicity on combined action with GIS” value is given as “No significant differences”. The IC50 in the data set with LEC cells (MTT, 24 h) is recorded as >100 * μg/mL. Moreover, the cytotoxic activity entry in the data set on LEC cells (concentration range 2–100 μg/mL) was “did not show statistically significant cytotoxic activity”. Further, the “polydispersity index (PDI)” value turned out to be 0.36 in data set [1] (1 × 10^–4 M), 0.41 in data set [1] (1 × 10^–5 M) and 0.42 in data set [1] (1 × 10^–6 M). Also, the “size of aggregates d” value is listed as 127 ± 16 nm in data set [1] (1 × 10^–4 M), 218 ± 10 nm in data set [1] (1 × 10^–5 M) and 457 ± 65 nm in data set [1] (1 × 10^–6 M).
